The source of these data is US9006455B2 (Bristol-Myers Squibb Company, priority 2009, dated 2015).

Molecules are shown by their SMILES. pEC50: −log10 of the molar value.

In the first assay the test system is HCV 1b genotype. The assay is described as follows: HCV Replicon assay (HCV 1b genotype). In kind it is cell-based. The settings on record: Hepatitis C virus; HCV 1b genotype replicon; read-out: EC50. On the procedure: An HCV Replicon assay was utilized in the present disclosure, and was prepared, conducted and validated as described in commonly owned PCT/US2006/022197 and in O'Boyle et al., Antimicrob. Agents Chemother., 49(4):1346-1353 (April 2005). Assay methods incorporating luciferase reporters have also been used as described (Apath.com).
HCV-neo replicon cells and replicon cells containing resistance substitutions in the NS5A region were used to test the currently described family of compounds. The compounds were determined to have differing degrees of reduced inhibitory activity on cells containing mutations vs. the corresponding inhibitory potency against wild-type cells. Thus, the compounds of the present disclosure can be effective in inhibiting the function of the HCV NS5A protein and are understood to be as effective in combinations as previously described in application PCT/US2006/022197 and commonly owned WO 04/014852. It should be understood that the compounds of the present disclosure can inhibit multiple genotypes of HCV. […] In one embodiment, compounds of the present disclosure are inhibitory versus 1a, 1b, 2a, 2b, 3a, 4a, and 5a genotypes.
(In general: In antiviral work, replicon cells carry a viral genome segment that copies itself.)
The pEC50 is the EC50 on a negative log10 scale, so that one unit is a factor of ten. Turning to `COC(=O)N[C@H](C(=O)N1[C@@H]2C[C@@H]2C[C@H]1c1nc2ccc(-c3ccc4nc(-c5ccc6nc([C@@H]7C[C@H]8C[C@H]8N7C(=O)[C@@H](NC(=O)OC)C7CCOCC7)[nH]c6c5)cnc4c3)cc2[nH]1)C1CCOCC1` [Example 38, Dimethyl(2,6-quinoxalinediylbis(1H-benzimidazole-5,2-diyl(1R,3S,5R)-2-azabicyclo[3.1.0]hexane-3,2-diyl((1S)-2-oxo-1-(tetrahydro-2H-pyran-4-yl)-2,1-ethanediyl)))biscarbamate], the pEC50 was 10.38.
Same read-out and setting: the value for `COC(=O)N[C@H](C(=O)N1CCC[C@H]1c1nc2ccc(-c3ccc4cc(-c5ccc6nc([C@@H]7CCCN7C(=O)[C@@H](NC(=O)OC)C7CCOCC7)[nH]c6c5)ccc4c3)cc2[nH]1)C(C)C` [Example 27, Methyl((1S)-2-((2S)-2-(5-(6-(2-((2S)-1-((2S)-2-((methoxycarbonyl)amino)-3-methylbutanoyl)-2-pyrrolidinyl)-1H-benzimidazol-5-yl)-2-naphthyl)-1H-benzimidazol-2-yl)-1-pyrrolidinyl)-2-oxo-1-(tetrahydro-2H-pyran-4-yl)ethyl)carbamate] was 11.32.
The same measure, in the same setting: the result for `COC(=O)N[C@H](C(=O)N1[C@@H]2C[C@@H]2C[C@H]1c1ncc(-c2ccc(-c3ccc4nc(-c5cnc([C@@H]6C[C@H]7C[C@H]7N6C(=O)[C@@H](NC(=O)OC)C(C)C)[nH]5)ccc4c3)cc2)[nH]1)C(C)C` [Example 80, methyl((1S)-1-(((1R,3S,5R)-3-(4-(6-(4-(2-((1R,3S,5R)-2-((2S)-2-((methoxycarbonyl)amino)-3-methylbutanoyl)-2-azabicyclo[3.1.0]hex-3-yl)-1H-imidazol-4-yl)phenyl)-2-quinolinyl)-1H-imidazol-2-yl)-2-azabicyclo[3.1.0]hex-2-yl)carbonyl)-2-methylpropyl)carbamate] reads 11.97.

The same assay, now with this note: Hepatitis C virus; HCV 1b genotype replicon; read-out: Range (EC50 values against HCV 1b).
Consider `COC(=O)N[C@H](C(=O)N1CCC[C@H]1c1nc2ncc(-c3ccc4cc(-c5cnc6nc([C@@H]7CCCN7C(=O)[C@@H](NC(=O)OC)C(C)C)[nH]c6c5)ccc4c3)cc2[nH]1)C(C)C` [Example 22, Methyl((1S)-1-(((2S)-2-(6-(6-(2-((2S)-1-((2S)-2-((methoxycarbonyl)amino)-3-methylbutanoyl)-2-pyrrolidinyl)-1H-imidazo[4,5-b]pyridin-6-yl)-2-naphthyl)-1H-imidazo[4,5-b]pyridin-2-yl)-1-pyrrolidinyl)carbonyl)-2-methylpropyl)carbamate], for which the pEC50 was 9.00 to 11.00.
The same measure, in the same setting: the value for `COC(=O)N[C@H](C(=O)N1CCC[C@H]1c1ncc(-c2ccc3ccc(-c4ccc5nc([C@@H]6CCCN6C(=O)[C@@H](NC(=O)OC)C(C)C)[nH]c5c4)cc3c2)[nH]1)C(C)C` [Example 17, Methyl((1S)-1-(((2S)-2-(4-(7-(2-((2S)-1-((2S)-2-((methoxycarbonyl)amino)-3-methylbutanoyl)-2-pyrrolidinyl)-1H-benzimidazol-5-yl)-2-naphthyl)-1H-imidazol-2-yl)-1-pyrrolidinyl)carbonyl)-2-methylpropyl)carbamate] was 6.00 to 9.00; that for `O=C([C@@H](c1ccccc1)N1CCCCC1)N1CCC[C@H]1c1nc2ccc(-c3ccc4cc(-c5ccc6nc([C@@H]7CCCN7C(=O)[C@@H](c7ccccc7)N7CCCCC7)[nH]c6c5)ccc4c3)cc2[nH]1` [Example 7, 5,5′-(2,6-Naphthalenediyl)bis(2-((2S)-1-((2R)-2-phenyl-2-(1-piperidinyl)acetyl)-2-pyrrolidinyl)-1H-benzimidazole)] was 9.00 to 11.00; that for `COC(=O)N[C@H](C(=O)N1[C@@H]2C[C@@H]2C[C@H]1c1nc2ccc(-c3ccc4nc(-c5ccc6nc([C@@H]7C[C@H]8C[C@H]8N7C(=O)[C@@H](NC(=O)OC)C7CCOCC7)[nH]c6c5)cnc4c3)cc2[nH]1)C1CCOCC1` [Example 38, Dimethyl(2,6-quinoxalinediylbis(1H-benzimidazole-5,2-diyl(1R,3S,5R)-2-azabicyclo[3.1.0]hexane-3,2-diyl((1S)-2-oxo-1-(tetrahydro-2H-pyran-4-yl)-2,1-ethanediyl)))biscarbamate] was 9.00 to 11.00.
The same measure, in the same setting: the result for `CC(C)(C)OC(=O)N1CCC[C@H]1c1nc(-c2ccc3cc(-c4c[nH]c([C@@H]5CCCN5C(=O)OC(C)(C)C)n4)ccc3c2)c[nH]1` [Intermediate 52, (2S,2′S)-tert-Butyl 2,2′-(4,4′-(naphthalene-2,6-diyl)bis(1H-imidazole-4,2-diyl))dipyrrolidine-1-carboxylate] reads 6.00 to 9.00; that for `O=C([C@@H](c1ccccc1)N1CCCCC1)N1CCC[C@H]1c1nc2cc(-c3ccc4ccc(-c5ccc6nc([C@@H]7CCCN7C(=O)[C@@H](c7ccccc7)N7CCCCC7)[nH]c6c5)cc4c3)ccc2[nH]1` [Example 15, 5,5′-(2,7-Naphthalenediyl)bis(2-((2S)-1-((2R)-2-phenyl-2-(1-piperidinyl)acetyl)-2-pyrrolidinyl)-1H-benzimidazole)], 9.00 to 11.00; that for `O=C(OCc1ccccc1)N1CCC[C@H]1c1nc2cc(-c3ccc4cc(-c5cnc6[nH]c([C@@H]7CCCN7C(=O)OCc7ccccc7)nc6c5)ccc4c3)cnc2[nH]1` [Intermediate 114, Benzyl(2S)-2-(6-(6-(2-((2S)-1-((benzyloxy)carbonyl)-2-pyrrolidinyl)-1H-imidazo[4,5-b]pyridin-6-yl)-2-naphthyl)-3H-imidazo[4,5-b]pyridin-2-yl)-1-pyrrolidinecarboxylate], 6.00 to 9.00.
Same read-out and setting: the result for `COC(=O)N[C@@H](C(=O)N1CCC[C@H]1c1nc2cc(-c3ccc4ccc(-c5ccc6nc([C@@H]7CCCN7C(=O)[C@H](NC(=O)OC)c7ccccc7)[nH]c6c5)cc4c3)ccc2[nH]1)c1ccccc1` [Example 12, Dimethyl(2,7-naphthalenediylbis(1H-benzimidazole-5,2-diyl(2S)-2,1-pyrrolidinediyl((1R)-2-oxo-1-phenyl-2,1-ethanediyl)))biscarbamate] reads 6.00 to 9.00; that for `COC(=O)N[C@H](C(=O)N1CCC[C@H]1c1ncc(C#Cc2ccc3cc(C#Cc4cnc([C@@H]5CCCN5C(=O)[C@@H](NC(=O)OC)C(C)C)[nH]4)ccc3c2)[nH]1)C(C)C` [Example 31, Methyl((1S)-1-(((2S)-2-(4-((6-((2-((2S)-1-((2S)-2-((methoxycarbonyl)amino)-3-methylbutanoyl)-2-pyrrolidinyl)-1H-imidazol-4-yl)ethynyl)-2-naphthyl)ethynyl)-1H-imidazol-2-yl)-1-pyrrolidinyl)carbonyl)-2-methylpropyl)carbamate], 9.00 to 11.00; that for `COC(=O)N[C@H](C(=O)N1CCC[C@H]1c1nc2cc(-c3ccc4ccc(-c5ccc6nc([C@@H]7CCCN7C(=O)[C@@H](NC(=O)OC)C(C)C)[nH]c6c5)cc4c3)ccc2[nH]1)C(C)C` [Example 1, Methyl((1S)-1-(((2S)-2-(5-(7-(2-((2S)-1-((2S)-2-((methoxycarbonyl)amino)-3-methylbutanoyl)-2-pyrrolidinyl)-1H-benzimidazol-5-yl)-2-naphthyl)-1H-benzimidazol-2-yl)-1-pyrrolidinyl)carbonyl)-2-methylpropyl)carbamate], 6.00 to 9.00.
As for `COC(=O)N[C@H](C(=O)N1CCC[C@H]1c1ncc(-c2ccc3cc(-c4ccc5nc([C@@H]6CCCN6C(=O)[C@@H](NC(=O)OC)C6CCOCC6)[nH]c5c4)ccc3c2)[nH]1)C1CCOCC1` [Example 28, Methyl((1S)-2-((2S)-2-(4-(6-(2-((2S)-1-((2S)-2-((methoxycarbonyl)amino)-2-(tetrahydro-2H-pyran-4-yl)acetyl)-2-pyrrolidinyl)-1H-benzimidazol-5-yl)-2-naphthyl)-1H-imidazol-2-yl)-1-pyrrolidinyl)-2-oxo-1-(tetrahydro-2H-pyran-4-yl)ethyl)carbamate], the pEC50 is 9.00 to 11.00.
